Source: paper PMC6278313
Substitutions are numbered along the chain they refer to. Like-named read-outs stand apart in the source and are kept apart here. One block for each compound: values may come before it.

Key:
[1] = tested on: COX-2; conditions: cited from earlier work
[2] = tested on: human COX-2; conditions: cited from earlier work; for Selectivity vs. COX-1: human whole blood, COX-2 over COX-1
[3] = molecular target: T1, COX-1 (Macaca mulatta, UniProt F6S984); assay: COX-1 inhibition, monkey whole blood (Thromboxane B2 EIA)
T1 sequence (F6S984 25-599): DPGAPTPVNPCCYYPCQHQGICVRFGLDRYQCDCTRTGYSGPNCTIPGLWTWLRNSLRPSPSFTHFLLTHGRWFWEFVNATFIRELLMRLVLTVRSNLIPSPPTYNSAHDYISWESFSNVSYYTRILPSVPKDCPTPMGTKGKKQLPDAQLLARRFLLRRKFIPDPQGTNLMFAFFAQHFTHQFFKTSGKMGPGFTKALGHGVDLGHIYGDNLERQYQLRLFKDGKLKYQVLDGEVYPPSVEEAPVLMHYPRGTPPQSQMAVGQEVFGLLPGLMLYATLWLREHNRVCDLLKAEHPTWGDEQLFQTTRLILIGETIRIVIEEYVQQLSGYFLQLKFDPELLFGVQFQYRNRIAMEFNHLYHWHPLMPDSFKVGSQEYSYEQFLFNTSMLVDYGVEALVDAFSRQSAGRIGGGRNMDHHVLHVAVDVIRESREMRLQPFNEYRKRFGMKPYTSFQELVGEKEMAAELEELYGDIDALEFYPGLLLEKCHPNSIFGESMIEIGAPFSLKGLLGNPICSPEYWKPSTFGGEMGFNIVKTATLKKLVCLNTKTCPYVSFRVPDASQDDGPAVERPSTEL

[4] = molecular target: T2, COX-1 (Homo sapiens, UniProt P23219); design: endogenous in cells; host or cells: fresh human whole blood; conditions: footnote c; SE <15%; read-out: IC50 COX-1 Human WB (literature); cited from earlier work
[5] = molecular target: T2, COX-1; assay: COX-1 inhibition, human whole blood (Thromboxane B2 EIA)
[6] = molecular target: T3, COX-2 (Homo sapiens, UniProt P35354); assay: COX-2 inhibition, human whole blood (Prostaglandin E2 EIA); type: cell-based
T3 construct: endogenous in cells; host or cells: fresh human whole blood
T3 sequence (P35354 18-604): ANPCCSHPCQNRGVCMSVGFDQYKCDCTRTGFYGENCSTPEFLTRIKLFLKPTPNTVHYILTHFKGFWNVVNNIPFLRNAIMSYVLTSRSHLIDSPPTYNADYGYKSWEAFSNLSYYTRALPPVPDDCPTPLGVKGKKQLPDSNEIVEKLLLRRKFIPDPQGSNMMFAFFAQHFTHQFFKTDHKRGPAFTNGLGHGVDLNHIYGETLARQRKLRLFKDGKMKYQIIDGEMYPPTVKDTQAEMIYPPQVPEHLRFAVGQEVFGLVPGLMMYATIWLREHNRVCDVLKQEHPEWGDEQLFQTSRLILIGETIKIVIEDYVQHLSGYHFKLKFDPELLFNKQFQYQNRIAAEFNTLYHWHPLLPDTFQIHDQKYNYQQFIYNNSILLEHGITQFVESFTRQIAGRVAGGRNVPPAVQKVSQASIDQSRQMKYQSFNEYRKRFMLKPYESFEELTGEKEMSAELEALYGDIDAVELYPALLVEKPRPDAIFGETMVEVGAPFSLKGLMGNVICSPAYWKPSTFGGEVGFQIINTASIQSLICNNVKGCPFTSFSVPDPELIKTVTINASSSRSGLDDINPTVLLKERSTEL

[7] = molecular target: T4, COX-2 (Macaca mulatta, UniProt F7BWZ9); assay: COX-2 inhibition, monkey whole blood (Prostaglandin E2 EIA)
T4 sequence (F7BWZ9 18-604): T3 sequence (P35354 18-604) with H7Y, F49L, A101V, L150F, S163T, N191K, A208D, R211H, T363N, G570R

[8] = tested on: all tested receptors, transporters, and binding sites; assay: NIMH-PDSP radioligand binding screen, whole panel; conditions: 10 μM; except the sites named for 17 and 27
[9] = Measured logD of radioligands (n-octanol / sodium phosphate buffer); type: physicochemical; conditions: n-octanol / sodium phosphate buffer 0.1 M pH 7.4; γ-counter
Procedure: cLogD (at pH 7.4) values were computed with Pallas for Windows software version 3.8 in default mode (CompuDrug International; Bal Harbor, FL, USA). The logD values of [^11C]17, [^18F]20, and [d2-^18F]27 were measured by a method that we have described previously. The radioactivity contents in the n-octanol and sodium phosphate buffer (0.1 M; pH 7.4) phases were determined with a γ-counter.

[10] = molecular target: COX-2; design: method as in literature cited in the text (18-30); conditions: cited from earlier work
[11] = tested on: benzodiazepine (BzP); assay: NIMH-PDSP radioligand binding screen, benzodiazepine site; design: species or system rat; conditions: 10 μM
[12] = Chart 1, PET in vivo, ref literature cited in the text (18-30)
[13] = Table 1, human whole blood COX-2, SEM <15%, read-out: HWB IC50
[14] = footnote c, SE <15%, read-out: IC50 COX-2 Human WB (literature) (converted)
[15] = mean ± SD, triplicate unless d n = 1, e n = 2, read-out: IC50 COX-2 Human WB
[16] = Chart 1, ref literature cited in the text (18-30)

T2 sequence (P23219 24-599): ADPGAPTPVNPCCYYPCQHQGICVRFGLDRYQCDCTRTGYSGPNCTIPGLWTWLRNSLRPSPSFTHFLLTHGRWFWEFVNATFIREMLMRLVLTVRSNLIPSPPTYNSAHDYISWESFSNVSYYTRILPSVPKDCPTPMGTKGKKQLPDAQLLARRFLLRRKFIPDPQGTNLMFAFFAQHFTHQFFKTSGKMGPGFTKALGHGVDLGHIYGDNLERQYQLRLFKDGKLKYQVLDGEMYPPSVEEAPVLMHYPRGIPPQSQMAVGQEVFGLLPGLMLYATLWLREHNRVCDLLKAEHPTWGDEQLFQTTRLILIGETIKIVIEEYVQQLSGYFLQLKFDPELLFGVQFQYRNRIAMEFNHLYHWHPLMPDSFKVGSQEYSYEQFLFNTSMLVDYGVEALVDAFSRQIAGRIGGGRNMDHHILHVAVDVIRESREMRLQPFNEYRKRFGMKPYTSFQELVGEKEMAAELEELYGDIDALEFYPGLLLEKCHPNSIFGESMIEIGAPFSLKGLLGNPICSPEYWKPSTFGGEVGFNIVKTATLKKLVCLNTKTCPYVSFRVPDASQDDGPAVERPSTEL

SMILES: [11CH3]Oc1ccc(-c2cc(C(F)(F)F)nn2-c2ccc(S(N)(=O)=O)cc2)cc1 [[^11C]2]
brain entry [1, 12]: Low brain penetration

melting point: 160 to 162.1 °C
IC50 [3]: > 1000 nM
IC50 [5]: > 1000 nM
IC50 [6, 15]: 3.52 ± 0.43 nM
IC50 [7]: 52.3 ± 0.01 nM
SMILES: CCSc1cc(NCc2cccs2)nc(-c2ccc(S(C)(=O)=O)cc2)n1 [Compound 19, 6-Thioethyl-2-(4-(methylsulfonyl)phenyl)-N-(thiophen-2-ylmethyl)pyrimidin-4-amine]
IC50 [2, 13]: 1.2 nM
IC50 [2, 14]: 1.2 nM
Selectivity vs. COX-1 [2]: >8403
IC50 [4]: > 10000 nM

IC50 [6, 15]: > 1000 nM
inhibition of radioligand binding at all tested receptors, transporters, and binding sites [8]: less than 50%
SMILES: CN(Cc1cccs1)c1cc(Cl)nc(-c2ccc(S(C)(=O)=O)cc2)n1 [Compound 30, 6-Chloro-N-methyl-2-(4-(methylsulfonyl)phenyl)-N-(thiophen-2-ylmethyl)pyrimidin-4-amine]

melting point: 170 to 171.2 °C
IC50 [5]: > 10000 nM
SMILES: CS(=O)(=O)c1ccc(-c2nc(Cl)cc(NCc3cccs3)n2)cc1 [Compound 25, 6-Chloro-2-(4-(methylsulfonyl)phenyl)-N-(thiophen-2-ylmethyl)pyrimidin-4-amine]
IC50 [2, 13]: 1.2 nM
IC50 [2, 14]: 1.2 nM
IC50 [4]: > 100000 nM

logD [9]: 3.74 ± 0.02
SMILES: CS(=O)(=O)c1ccc(-c2nc(NCc3cccs3)cc(O[11CH3])n2)cc1 [[^11C]17]

logD [9]: 3.7 ± 0.12
SMILES: [2H]C([2H])([18F])Oc1cc(NCc2cccs2)nc(-c2ccc(S(C)(=O)=O)cc2)n1 [[d2-^18F]27]

logD [9]: 2.94 ± 0.32
SMILES: CS(=O)(=O)c1ccc(-c2nc(NCc3cccs3)cc(OCC[18F])n2)cc1 [[^18F]20]

melting point: 130.4 to 131.4 °C
SMILES: CS(=O)(=O)c1ccc(-c2nc(Cl)cc(NCc3ccccc3)n2)cc1 [Compound 23, N-Benzyl-6-chloro-2-(4-(methylsulfonyl)phenyl)pyrimidin-4-amine]
IC50 [4]: > 100000 nM

SMILES: NS(=O)(=O)c1ccc(-c2c(-c3ccccc3)noc2C[18F])cc1 [[^18F]5]
brain entry ([1]; in vivo): Some brain entry
defluorination in vivo ([1]; in vivo): Rapidly defluorinated
specific signal / specific binding in vivo ([1]; in vivo): No brain specific signal
Ki [10]: 2 nM

melting point: 147.7 to 149.2 °C
IC50 [6, 15]: 1.9 nM
IC50 [7]: 1.28 nM
SMILES: CS(=O)(=O)c1ccc(-c2nc(NCc3cccs3)cc(OCCF)n2)cc1 [Compound 20, 6-(2-Fluoroethoxy)-2-(4-(methylsulfonyl)phenyl)-N-(thiophen-2-ylmethyl)pyrimidin-4-amine]

IC50 [3]: > 1000 nM
IC50 [5]: > 1000 nM
IC50 [6, 15]: 2.26 ± 0.63 nM
inhibition of radioligand binding at benzodiazepine (BzP) [11]: 50.8%
inhibition of radioligand binding at all tested receptors, transporters, and binding sites [8]: less than 50%
IC50 [7]: 2.26 ± 0.45 nM
SMILES: CS(=O)(=O)c1ccc(-c2nc(NCc3cccs3)cc(OCF)n2)cc1 [Compound 27, 6-(2-Fluoromethoxy)-2-(4-(methylsulfonyl)phenyl)-N-(thiophen-2-yl-methyl)pyrimidin-4-amine]

SMILES: [11CH3]S(=O)(=O)c1ccc(C2=C(c3ccccc3)C(=O)OC2)cc1 [[^11C]4, [^11C]rofecoxib]
brain entry ([1]; in vivo): Low brain entry
brain entry (SUV) ([1]; in vivo): 0.26 SUV
specific signal / specific binding in vivo ([1]; in vivo): No specific binding in rat inflammatory models

melting point: 169.2 to 170.4 °C
IC50 [5]: > 10000 nM
inhibition of radioligand binding at all tested receptors, transporters, and binding sites [8]: less than 50%
SMILES: CCOc1cc(NCc2cccs2)nc(-c2ccc(S(C)(=O)=O)cc2)n1 [Compound 18, 6-Ethoxy-2-(4-(methylsulfonyl)phenyl)-N-(thiophen-2-ylmethyl)pyrimidin-4-amine]

melting point: 133.4 to 134.6 °C
IC50 [3]: > 1000 nM
IC50 [5]: > 1000 nM
IC50 [6]: 7.35 ± 1.35 nM
IC50 [7]: 14.6 ± 10.1 nM
SMILES: COc1cc(NCc2ccccc2)nc(-c2ccc(S(C)(=O)=O)cc2)n1 [Compound 22, N-Benzyl-6-methoxy-2-(4-(methylsulfonyl)phenyl)pyrimidin-4-amine]
Selectivity vs. COX-1 [2]: >19,646
IC50 ([2]; read-out: HWB IC50): 5.1 nM
IC50 ([2]; read-out: IC50 COX-2 Human WB (literature) (converted)): 5.1 nM
IC50 [4]: > 100000 nM

SMILES: Cc1ccc(-c2cc(C(F)(F)F)nn2-c2ccc(S(=O)(=O)Nc3cccc([18F])c3)cc2)cc1 [[^18F]3]
Ki [10, 16]: 250 nM

melting point: 287.9 to 289.2 °C
IC50 [3]: > 1000 nM
IC50 [5]: > 1000 nM
IC50 [7]: > 1000 nM
SMILES: CS(=O)(=O)c1ccc(-c2nc(O)cc(NCc3ccccc3)n2)cc1 [Compound 24, 6-(Benzylamino)-2-(4-(methylsulfonyl)phenyl)pyrimidin-4-ol]
inhibitory potency for COX-2 [2]: low inhibitory potency
IC50 [4]: > 100000 nM

SMILES: [11CH3]Oc1ccc(-c2c(-c3ccc(S(N)(=O)=O)cc3)[nH]c3ccccc23)cc1 [[^11C]7]
brain entry [1, 12]: Low rat brain uptake

melting point: 130.4 to 131.4 °C
IC50 [6, 15]: 2.5 nM
SMILES: CS(=O)(=O)c1ccc(-c2nc(F)cc(NCc3cccs3)n2)cc1 [Compound 29, 6-Fluoro-2-(4-(methylsulfonyl)phenyl)-N-(thiophen-2-ylmethyl)pyrimidin-4-amine]

SMILES: [11CH3]Oc1ccc(-c2cncn2-c2ccc(S(N)(=O)=O)cc2)cc1 [[^11C]6]
brain entry [1, 12]: Low brain uptake
Ki [10, 16]: 5 nM

melting point: 159.1 to 160.4 °C
IC50 [3]: > 1000 nM
IC50 [5]: > 1000 nM
IC50 [6, 15]: 2.65 ± 0.45 nM
IC50 [7]: 4.83 ± 2.31 nM
SMILES: CSc1cc(NCc2cccs2)nc(-c2ccc(S(C)(=O)=O)cc2)n1 [Compound 21, 6-Thiomethyl-2-(4-(methylsulfonyl)phenyl)-N-(thiophen-2-ylmethyl)pyrimidin-4-amine]

melting point: 261.7 to 263.2 °C
SMILES: CS(=O)(=O)c1ccc(-c2nc(O)cc(NCc3cccs3)n2)cc1 [Compound 26, 2-(4-(Methylsulfonyl)phenyl)-6-(thiophen-2-yl-methylamino)pyrimidin-4-ol]
inhibitory potency for COX-2 [2]: low inhibitory potency
IC50 [4]: > 100000 nM
